Laboratory results published in publication PMC4822050, “Hemi-methylated DNA opens a closed conformation of UHRF1 to facilitate its histone recognition” (Nature Communications, 2016).
Each block holds one substance with its values, some of them ahead of it.

How the values were obtained:
[1] = tested on: H3 peptide (1–17) (H3K9me0); experiment: ITC, H3 (H3K9me0) peptide (1-17) titrated into UHRF1 proteins; assay type: binding
Procedure: (§1) For competition ITC experiments: the indicated proteins were pre-incubated with competitive peptide, protein or hm-DNA (at 1:2 molar ratio if not specified) for 10 min followed by ITC measurements as described above. Proteins, DNA and peptides were prepared within ITC buffer containing 10 mM HEPES, pH 8.0, 100 mM NaCl. The data were fitted by software Origin 7.0. All ITC results were summarized in Supplementary Table 2 and raw data were shown in Supplementary Fig. 9.

[2] = biological target: FAM-16bp-HM-DNA; experiment: Fluorescence polarization, 16-bp FAM-hm-DNA; assay type: binding; conditions: FP, DNA length series
Procedure: (§2) FP measurements were performed at 25 °C on Synergy 4 Microplate Reader (BioTek). The 16-bp and 20-bp FAM-labelled hm-DNA (lower strand: 5′-GTGTCAGXGCATGGCC-3′ and 5′-CCGTGTCAGXGCATGGCCAT-3′, respectively. X=5-methyldeoxycytosine) were used in the FP experiment to test the effect of DNA length on the protein/DNA interaction. All experiments were performed in triplicate. The curves were fitted by GraphPad Prism 5. For salt concentration-dependent FP experiments, the reaction buffer contains 50 mM or 150 mM NaCl, respectively.

[3] = biological target: RFTS^DNMT1; experiment: ITC, RFTS of DNMT1 with SRA or SRA-Spacer; assay type: binding; conditions: 18 °C, RFTS^DNMT1 with named protein, 10 mM HEPES pH 8.0, 100 mM NaCl
Procedure: as §1

[4] = biological target: FAM-12bp-HM-DNA; experiment: Fluorescence polarization, 12-bp FAM-hm-DNA; assay type: binding; conditions: FP
Procedure: A 6-carboxy-fluorescein (FAM)-labelled primer, 5′-CCATGCGCTGAC-3′, was annealed to a primer 5′-GTCAGXGCATGG-3′ (X=5-methyldeoxycytosine). The hemi-methylated double-strand DNA was used in both electrophoretic mobility-shift assay and FP assays. […] The samples were subjected to a 10% polyacrylamide gel electrophoresis and run in 0.5 × Tris-borate-EDTA buffer at 100 V for 1 h at 4 °C. The results were visualized on Tanon-5200 Chemiluminescent Imaging System (Tanon Science & Technology Co., Ltd).
as §2

[5] = biological target: hm-DNA (12 bp); experiment: ITC, hm-DNA titrated into UHRF1 domains; assay type: binding; conditions: 18 °C, 12-bp hm-DNA in syringe, named protein in cell, 10 mM HEPES pH 8.0, 100 mM NaCl
Procedure: as §1

[6] = biological target: FAM-20bp-HM-DNA; experiment: Fluorescence polarization, 20-bp FAM-hm-DNA; assay type: binding; conditions: FP, DNA length series
Procedure: as §2

[7] = biological target: PHD (residues 307–366) of UHRF1; experiment: ITC, PHD titrated into UHRF1 domains; assay type: binding, human; conditions: 18 °C, PHD in syringe, named protein in cell, 10 mM HEPES pH 8.0, 100 mM NaCl
Procedure: as §1

[8] = biological target: T1, TTD (residues 134–285) of UHRF1 (Homo sapiens, UniProt Q96T88); experiment: ITC, TTD titrated into Spacer variants and other UHRF1 fragments; assay type: binding; conditions: TTD in syringe
T1 construct: TTD (residues 134–285); GST (N, cleaved yes); made in house; host or cells: E. coli BL21 (DE3)
T1 sequence (Q96T88 134-285): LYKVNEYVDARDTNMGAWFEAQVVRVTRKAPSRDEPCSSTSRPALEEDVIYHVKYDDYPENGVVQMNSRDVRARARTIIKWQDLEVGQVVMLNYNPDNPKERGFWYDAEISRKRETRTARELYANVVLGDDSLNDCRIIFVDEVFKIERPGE
Procedure: as §1

[9] = tested on: DAPI foci (pericentromeric heterochromatin) in NIH3T3 cells; experiment: Subcellular localization of GFP-tagged UHRF1 in NIH3T3 cells; assay type: cell-based; conditions: GFP-tagged protein transiently overexpressed in NIH3T3 cells, 36 h after transfection; at least 100 cells counted; repeated three times
Procedure: NIH3T3 cells were obtained from the Shanghai Institute of Biochemistry and Cell Biology. Wild type and mutants of UHRF1 were sub-cloned into pEGFP-C1 vector. Transient transfections of NIH3T3 cells were carried out using Lipofectamine 2000 (Invitrogen). The NIH3T3 cells were grown on glass coverslips and harvested in 36 h after transfection. The images were acquired and examined as previously described. Briefly, cells were fixed with 4% paraformaldehyde for 25 min, then washed with PBS three times. Coverslips were mounted with Antifade reagent containing DAPI (Molecular Probes) on slides and examined with a confocal microscopy.

[10] = biological target: H3K9me3 peptide (1–17); experiment: ITC, H3K9me3 peptide (1-17) titrated into UHRF1 proteins; assay type: binding; conditions: ITC, 18 °C; named protein 0.05 mM in cell, H3K9me3 (1-17) 0.5 mM in syringe; 10 mM HEPES pH 8.0, 100 mM NaCl; read-out: KD
Procedure: as §1

[11] = 25 °C, 20 min, 20 mM HEPES pH 7.5, 175 mM NaCl, 8% glycerol, 1 mM DTT, triplicate, Fig. 5b and Supplementary Table 4

fold higher binding affinity to H3K9me0 peptide than full-length UHRF1 ([1]; ITC KD ratio): ~34 fold
Substance: PHD: plant homeodomain of human UHRF1 (residues 307–366) (DDVNRLCRVCACHLCGGRQDPDKQLMCDECDMAFHIYCLDPPLSSVPSEDEWYCPECRND; UniProt Q96T88 307-366, looked up, fragment)

Kd [2]: 29.4 ± 9.74 µM
KD [3]: no detectable interaction
Kd ([4]; 12-bp hm-DNA, 50 mM NaCl): 0.15 ± 0.018 µM
Kd ([4]; 12-bp hm-DNA, 150 mM NaCl): 5.92 ± 1.32 µM
Kd [4, 11]: 9.23 ± 3.07 µM
Kd ([4]; DNA length series, Supplementary Table 5, 12-bp hm-DNA): 12.8 ± 2.07 µM
Kd [5]: 25.1 µM
Kd [6]: 9.59 ± 4.78 µM
Kd [7]: 26.7 ± 12.1 µM
Substance: SRA: SET-and-RING-associated domain of human UHRF1 (residues 414–617)

KD ([8]; ITC, 18 °C, named protein or peptide in cell, 10 mM HEPES pH 8.0, 100 mM NaCl): no detectable interaction
Substance: Spacer587-641: Spacer fragment, residues 587–641 (PGPWTKEGKDRIKKLGLTMQYPEGYLEALANREREKENSKREEEEQQEGGFASPR; left off: GST, end not stated, cleaved)

N ([8]; ITC stoichiometry): 1.09±0.00765
ΔH ([8]; ITC): -11.3 kcal/mol
ΔS ([8]; ITC): -11.2 cal/mol/deg
Substance: Spacer642-674: Spacer fragment, residues 642–674 (TGKGKWKRKSAGGGPSRAGSPRRTSKKTKVEPY; left off: GST, end not stated, cleaved)

Kd [4, 11]: 0.35 µM
Kd [10]: 4.61 ± 0.47 µM
Kd ([1]; ITC, 18 °C, named protein 0.05 mM in cell, H3 (1-17) 0.5 mM in syringe, 10 mM HEPES pH 8.0, 100 mM NaCl): 26 ± 7.01 µM
Substance: UHRF1: recombinant human UHRF1 (residues 1–793); GFP-tagged in the cell assay
percentage of cells showing co-localization with DAPI foci [9]: 74.6%
